Experiments:
Assay type in all cases: biochemical
[1] = target: Pim-3 (Homo sapiens (Human), UniProt Q86V86); test: Pim-3 kinase assay; settings: 1 mM ATP; read-out: PIM3 IC50
Procedure: (§1) Pim-1 and Pim-3 kinase assays—20 μL reactions were run in white 384 well polystyrene plates dotted with 0.8 μL compound/DMSO in the assay buffer (50 mM Tris, pH 7.5, 0.01% Tween-20, 5 mM mgCl2, 0.01% BSA, 5 mM DTT), containing 0.05 μM Biotin-labeled BAD peptide substrate (AnaSpec 62269), 1 mM ATP, and 2.5 pM (Pim-1, Invitrogen PV3503) or 1.25 pM (Pim-3, Millipore 14-738) enzyme for 1 h at 25° C. Reactions were stopped by addition of 10 μL STOP Buffer (150 mM Tris, pH=7.5, 150 mM NaCl, 75 mM EDTA, 0.01% Tween-20, 0.3% BSA,) supplemented with Phospho-Bad (Ser112) Antibody (Cell Signaling 9291) diluted 666-fold, and Streptavidin donor beads (PerkinElmer 6760002) along with Protein-A acceptor beads (PerkinElmer 6760137) at […]. Supplementation of the STOP buffer with beads and stopping the reactions were done under reduced light. Prior to the stopping reactions STOP buffer with beads was preincubated for 1 h in the dark at room temperature. After stopping the reactions, plates were incubated for 1 h in the dark at room temperature before reading on a PHERAstar FS plate reader (BMG Labtech) under reduced light.

[2] = target: Pim-2 (Homo sapiens (Human), UniProt Q9P1W9); test: Pim-2 kinase assay; settings: 1 mM ATP; read-out: PIM2 IC50
Pim-2, sequence (Q9P1W9 whole entry): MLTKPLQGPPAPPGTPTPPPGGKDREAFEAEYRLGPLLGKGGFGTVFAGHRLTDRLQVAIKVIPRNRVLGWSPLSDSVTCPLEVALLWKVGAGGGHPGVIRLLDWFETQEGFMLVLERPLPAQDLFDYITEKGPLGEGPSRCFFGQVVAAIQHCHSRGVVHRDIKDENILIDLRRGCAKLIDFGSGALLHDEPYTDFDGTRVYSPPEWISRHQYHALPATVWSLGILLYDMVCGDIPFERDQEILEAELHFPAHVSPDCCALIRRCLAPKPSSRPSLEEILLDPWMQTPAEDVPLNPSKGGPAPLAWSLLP
Procedure: Pim-2 kinase assay—20 μL reactions were run in white 384 well polystyrene plates dotted with 0.8 μL compound/DMSO in the assay buffer (50 mM Tris, pH 7.5, 0.01% Tween-20, 5 mM mgCl2, 0.01% BSA, 5 mM DTT), containing 0.05 μM Fluorescein-labeled CREBtide peptide substrate (Invitrogen PV3508), 1 mM ATP, and 1 nM enzyme (Invitrogen PV3649) for 2 h at 25° C. Reactions were stopped by addition of 10 μL TR-FRET Dilution Buffer (Invitrogen PV3574) with 30 mM EDTA and 1.5 nM LanthaScreen Tb-CREB pSer133 antibody (Invitrogen PV3566). After 30 min. incubation at room temperature, plates were read on a PHERAstar FS plate reader (BMG Labtech).

[3] = target: Pim-1 (Homo sapiens (Human), UniProt P11309); test: Pim-1 kinase assay; settings: 1 mM ATP; read-out: PIM1 IC50
Pim-1, sequence (P11309 whole entry): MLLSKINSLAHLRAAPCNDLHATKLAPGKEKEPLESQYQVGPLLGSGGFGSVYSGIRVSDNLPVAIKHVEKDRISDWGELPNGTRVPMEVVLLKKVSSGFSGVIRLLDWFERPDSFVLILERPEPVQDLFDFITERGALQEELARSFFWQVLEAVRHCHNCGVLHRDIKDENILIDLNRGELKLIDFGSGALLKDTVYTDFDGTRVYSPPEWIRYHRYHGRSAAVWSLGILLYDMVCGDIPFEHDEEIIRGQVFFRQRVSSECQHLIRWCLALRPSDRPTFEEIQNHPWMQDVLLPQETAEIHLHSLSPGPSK
Procedure: as §1

SMILES	IC50 [1] [nM]	IC50 [2] [nM]	IC50 [3] [nM]
COC[C@H]1CCCN1c1cnc2c(C(=O)Nc3cnccc3[C@@H]3C[C@H](C)C[C@H](N)C3)ccc(F)c2c1 [Example 47, N-(4-((1R,3S,5S)-3-Amino-5-methylcyclohexyl)pyridin-3-yl)-5-fluoro-3-OR)-2-(methoxymethyl)pyrrolidin-1-yl)quinoline-8-carboxamide]	≤ 10	≤ 100	≤ 10
COC[C@@H]1CCCN1c1cnc2c(C(=O)Nc3cnccc3[C@@H]3C[C@H](C)C[C@H](N)C3)ccc(F)c2c1 [Example 48, N-(4-((1R,3S,5S)-3-Amino-5-methylcyclohexyl)pyridin-3-yl)-5-fluoro-3-((S)-2-(methoxymethyl)pyrrolidin-1-yl)quinoline-8-carboxamide]	≤ 10	100 to 1000	≤ 10
CO[C@@H]1CCN(c2cnc3c(C(=O)Nc4cnccc4[C@@H]4C[C@H](C)C[C@H](N)C4)ccc(F)c3c2)C1 [Example 49, N-(4-((1R,3S,5S)-3-amino-5-methylcyclohexyl)pyridin-3-yl)-5-fluoro-3-((R)-3-methoxypyrrolidin-1-yl)quinoline-8-carboxamide]	≤ 10	100 to 1000	≤ 10
CO[C@H]1CCN(c2cnc3c(C(=O)Nc4cnccc4[C@@H]4C[C@H](C)C[C@H](N)C4)ccc(F)c3c2)C1 [Example 50, N-(4-((1R,3S,5S)-3-Amino-5-methylcyclohexyl)pyridin-3-yl)-5-fluoro-3-((S)-3-methoxypyrrolidin-1-yl)quinoline-8-carboxamide]	≤ 10	≤ 100	≤ 10
COCCN(C)c1cnc2c(C(=O)Nc3cnccc3[C@@H]3C[C@H](C)C[C@H](N)C3)ccc(F)c2c1 [Example 51, N-(4-((1R,3S,5S)-3-Amino-5-methylcyclohexyl)pyridin-3-yl)-5-fluoro-3-((2-methoxyethyl)(methyl)amino)quinoline-8-carboxamide]	≤ 10	100 to 1000	≤ 10
C[C@@H]1C[C@H](N)C[C@H](c2ccncc2NC(=O)c2ccc(F)c3cc(N[C@@H](C)C4CC4)cnc23)C1 [Example 52, N-(4-((1R,3S,5S)-3-Amino-5-methylcyclohexyl)pyridin-3-yl)-3-((S)-1-cyclopropylethylamino)-5-fluoroquinoline-8-carboxamide]	10 to 50	1000 to 10000	≤ 10
CC(C)[C@H](C)Nc1cnc2c(C(=O)Nc3cnccc3[C@@H]3C[C@H](C)C[C@H](N)C3)ccc(F)c2c1 [Example 53, N-(4-((1R,3S,5S)-3-Amino-5-methylcyclohexyl)pyridin-3-yl)-5-fluoro-3-((S)-3-methylbutan-2-ylamino)quinoline-8-carboxamide]	≤ 10	100 to 1000	≤ 10
CC(C)[C@@H](C)Nc1cnc2c(C(=O)Nc3cnccc3[C@@H]3C[C@H](C)C[C@H](N)C3)ccc(F)c2c1 [Example 54, N-(4-((1R,3S,5S)-3-amino-5-methylcyclohexyl)pyridin-3-yl)-5-fluoro-3-((R)-3-methylbutan-2-ylamino)quinoline-8-carboxamide]	≤ 10	100 to 1000	≤ 10
CCCN(C)c1cnc2c(C(=O)Nc3cnccc3[C@@H]3C[C@H](C)C[C@H](N)C3)ccc(F)c2c1 [Example 55, N-(4-((1R,3S,5S)-3-Amino-5-methylcyclohexyl)pyridin-3-yl)-5-fluoro-3-(methyl(propyl)amino)quinoline-8-carboxamide]	≤ 10	≤ 100	≤ 10
CC(C)N(C)c1cnc2c(C(=O)Nc3cnccc3[C@@H]3C[C@H](C)C[C@H](N)C3)ccc(F)c2c1 [Example 56, N-(4-((1R,3S,5S)-3-Amino-5-methylcyclohexyl)pyridin-3-yl)-5-fluoro-3-(isopropyl(methyl)amino)quinoline-8-carboxamide]	≤ 10	≤ 100	≤ 10
CCC1CCCCN1c1cnc2c(C(=O)Nc3cnccc3[C@@H]3C[C@H](C)C[C@H](N)C3)ccc(F)c2c1 (stereo partly drawn) [Example 57, N-(4-((1R,3S,5S)-3-Amino-5-methylcyclohexyl)pyridin-3-yl)-3-(2-ethylpiperidin-1-yl)-5-fluoroquinoline-8-carboxamide]	10 to 50	≤ 100	≤ 10
C[C@@H]1C[C@H](N)C[C@H](c2ccncc2NC(=O)c2ccc(F)c3cc(N4CCCCC4C(F)F)cnc23)C1 (stereo partly drawn) [Example 58, N-(4-((1R,3S,5S)-3-Amino-5-methylcyclohexyl)pyridin-3-yl)-3-(2-(difluoromethyl)piperidin-1-yl)-5-fluoroquinoline-8-carboxamide]	≤ 10	≤ 100	≤ 10
C[C@@H]1C[C@H](N)C[C@H](c2ccncc2NC(=O)c2ccc(F)c3cc(-c4cc(F)cc5cccnc45)cnc23)C1 [Example 59, N-(4-((1R,3S,5S)-3-Amino-5-methylcyclohexyl)pyridin-3-yl)-5,6′-difluoro-3,8′-biquinoline-8-carboxamide]	10 to 50	1000 to 10000	≤ 10
C[C@@H]1C[C@H](N)C[C@H](c2ccncc2NC(=O)c2ccc(F)c3cc(-c4ccc(F)c5cccnc45)cnc23)C1 [Example 60, N-(4-((1R,3S,5S)-3-Amino-5-methylcyclohexyl)pyridin-3-yl)-5,5′-difluoro-3,8′-biquinoline-8-carboxamide]	10 to 50	1000 to 10000	≤ 10
C[C@@H]1C[C@H](N)C[C@H](c2ccncc2NC(=O)c2ccc(F)c3cc(-c4ccc(C(F)(F)F)nc4)cnc23)C1 [Example 61, N-(4-((1R,3S,5S)-3-Amino-5-methylcyclohexyl)pyridin-3-yl)-5-fluoro-3-(6-(trifluoromethyl)pyridin-3-yl)quinoline-8-carboxamide]	10 to 50	1000 to 10000	≤ 10
CCn1cc(-c2cnc3c(C(=O)Nc4cnccc4[C@@H]4C[C@H](C)C[C@H](N)C4)ccc(F)c3c2)cn1 [Example 62, N-(4-((1R,3S,5S)-3-Amino-5-methylcyclohexyl)pyridin-3-yl)-3-(1-ethyl-1H-pyrazol-4-yl)-5-fluoroquinoline-8-carboxamide]	≤ 10	100 to 1000	≤ 10
Cc1nn(C)cc1-c1cnc2c(C(=O)Nc3cnccc3[C@@H]3C[C@H](C)C[C@H](N)C3)ccc(F)c2c1 [Example 63, N-(4-((1R,3S,5S)-3-Amino-5-methylcyclohexyl)pyridin-3-yl)-3-(1,3-dimethyl-1H-pyrazol-4-yl)-5-fluoroquinoline-8-carboxamide]	≤ 10	100 to 1000	≤ 10
C[C@@H]1C[C@H](N)C[C@H](c2ccncc2NC(=O)c2ccc(F)c3cc(-c4cnn(C)c4)cnc23)C1 [Example 64, N-(4-((1R,3S,5S)-3-Amino-5-methylcyclohexyl)pyridin-3-yl)-5-fluoro-3-(1-methyl-1H-pyrazol-4-yl)quinoline-8-carboxamide]	≤ 10	100 to 1000	≤ 10
Cc1n[nH]cc1-c1cnc2c(C(=O)Nc3cnccc3[C@@H]3C[C@H](C)C[C@H](N)C3)ccc(F)c2c1 [Example 65, N-(4-((1R,3S,5S)-3-amino-5-methylcyclohexyl)pyridin-3-yl)-5-fluoro-3-(3-methyl-1H-pyrazol-4-yl)quinoline-8-carboxamide]	≤ 10	100 to 1000	≤ 10
C[C@@H]1C[C@H](N)C[C@H](c2ccncc2NC(=O)c2ccc(F)c3cc(-c4cn[nH]c4)cnc23)C1 [Example 66, N-(4-((1R,3S,5S)-3-amino-5-methylcyclohexyl)pyridin-3-yl)-5-fluoro-3-(1H-pyrazol-4-yl)quinoline-8-carboxamide]	≤ 10	100 to 1000	≤ 10
C[C@@H]1C[C@H](N)C[C@H](c2ccncc2NC(=O)c2cccc3cc(N4CCOC[C@H]4C)cnc23)C1 [Example 67, N-(4-((1R,3S,5S)-3-Amino-5-methylcyclohexyl)pyridin-3-yl)-3-((R)-3-methylmorpholino)quinoline-8-carboxamide]	≤ 10	≤ 100	≤ 10
C[C@@H]1C[C@H](N)C[C@H](c2ccncc2NC(=O)c2cccc3cc(N4CCC[C@H]4C)cnc23)C1 [Example 68, N-(4-((1R,3S,5S)-3-Amino-5-methylcyclohexyl)pyridin-3-yl)-3-((R)-2-methylpyrrolidin-1-yl)quinoline-8-carboxamide]	≤ 10	≤ 100	≤ 10

Source: patent US9920032B2, “Heterocyclic compounds useful as pim kinase inhibitors” (Incyte Corporation, priority 2015, dated 2018)
